From US20140147856A1, “Intestinal Permeability Assay for Neurodegenerative Diseases” (Rush University Medical Center, priority 2012, published 2014)

Experiment: Oral sugar intestinal permeability assay (urinary sugar excretion by gas chromatography)
Format: in vivo, human
Settings: oral sugar mixture with 1 gram sucralose after overnight fast, 24 h urine
Source text: In an example of a protocol used to validate the instant invention, patients with clinically diagnosed PD not yet requiring dopaminergic therapy were recruited under a clinical protocol (FIG. 1 and Table 1). […] Constipation was defined as fewer than 3 bowel movements per week or if the subject complained of constipation. Men and women who met United Kingdom Parkinson Disease Research Society brain bank criteria for PD, Hoehn & Yahr stage 1-2.5 were included. Subjects were excluded based on the following: atypical or secondary Parkinsonism, any known organic gastrointestinal disease, use of drugs affecting gastrointestinal motility, anti-inflammatory agents, and chronic diuretic use. Control subjects were of similar age and gender that had no GI or neurological symptoms or signs (determined by examination by a board certified neurologist with expertise in movement disorders) and were not taking regular medication or anti-inflammatory agents.
Subjects fasted overnight and subsequently ingested a sugar mixture containing 2 grams mannitol, 7.5 grams lactulose, 40 grams sucrose, and 1 gram sucralose at 6 AM, then collected 2 sequential 12-hour urine samples. Urine was analyzed for sugar content using gas chromatography (GC) techniques as described herein. […] The final residue is dissolved in 0.5 ml acetone and the sample is ready for analysis. […]

mean 24 h urinary sucralose (marker of total intestinal permeability) (PD subjects): 1.12±0.1% of oral dose
mean 24 h urinary sucralose (marker of total intestinal permeability) (age matched controls): 0.58±0.1% of oral dose
SMILES: OC[C@H]1O[C@H](O[C@]2(CCl)O[C@H](CCl)[C@@H](O)[C@@H]2O)[C@H](O)[C@@H](O)[C@H]1Cl [sucralose]
